Results from PMC8344021, “Discovery of Small Molecule Bak Activator for Lung Cancer Therapy” (Theranostics, 2021).

What was measured:
mouse Bak protein = target: T1, mouse Bak protein (Mus musculus, UniProt O08734); assay: Isothermal titration calorimetry (ITC), mouse protein; type: binding; conditions: mouse wild type Bak
T1 construct: His tag; made in house; host or cells: Escherichia coli BL21 DE3
Procedure: The binding affinity of BKA-073 with Bak protein was examined by isothermal titration calorimetry (ITC) assay as described, [28]. ITC assay was carried out in the auto-iTC200 instrument (MicroCal, GE) at 25 °C. Purified recombinant human or mouse Bak protein was loaded into a 96 Deepwell PP plate. BKA-073 compound was then titrated stepwise into the protein for a total of 16 injections. Reference power and initial delay were set as 5 µCal/sec and 60s, respectively. A string speed of 750 rpm was used for the ITC measurements. The binding constant (Kd) value was determined by fitting the titration curve to a one-site binding mode, using the Origin software provided by the manufacturer.
Figure S3. […] The binding constant (KD) value was determined by fitting of the titration curve to a 1- […]
(1 x 10^5 cells) was transferred to a 5 ml culture tube, followed by the addition of 5 μl of FITC Annexin V and 5 μl propidium iodide (PI). […] Samples were analyzed by flow cytometry (BD FACSCantoTMII, BD Biosciences, San Jose, CA). ∆% cell death was calculated with the formula: (% cell death treated - % cell death non-treated) as described […]
Fluorescence polarization (FP) assay
Fluorescence polarization assay was carried out as described previously. […] The FP values (in millipolarization units) were measured using a fluorescence microplate reader at 485/530 nm (Gemini XPS, Molecular Devices). […]

A549 xenografts = assay: A549 lung cancer xenografts, tumor growth; type: in vivo, Nu/Nu nude mice
Procedure: Six-week-old female Nu/Nu nude mice were purchased from Envigo (Indianapolis, IN) and housed under pathogen-free conditions in microisolator cages. The animal propagation protocol was approved by the Emory Institutional Animal Care and Use Committee (IACUC) and the Emory Animal Ethics Committee. 3×10^6 lung cancer cells were injected into subcutaneous tissue in the flank region of nude mice. The tumors were allowed to grow to an average volume of 150~200 mm^3 prior to initiation of therapy as previously described, [29]. Patient-derived xenografts (PDXs, TKO-002 and TKO-005) were established as part of an IRB-approved phase II co-clinical trial of arsenic trioxide in patients with relapsed SCLC who had failed standard platinum-based chemotherapy. Tumor samples were obtained by image-guided biopsy and were directly implanted into Nu/Nu nude mice without intervening propagation in plastic culture plates. Direct serial propagation of growing tumor occurred for up to 5 generations. The animal propagation protocol was approved by the Emory IACUC and the Emory Animal Ethics Committee. Mice with SCLC and NSCLC xenografts or PDXs were treated with BKA-073 intraperitoneally (i.p.) or venetoclax orally as indicated. During treatment, tumor volume (V) was measured by caliper measurements once every two days as described previously. Mice were euthanized by CO2 inhalation at the end of treatment. Harvested tumor tissues were used for further analysis.
To assess whether BKA-073 induced suppression of tumor growth occurs through activation of Bak and apoptosis in vivo, representative samples from harvested tumor tissues were analyzed by cross-linking with BMH for Bak oligomerization or by immunohistochemistry (IHC) for active caspase 3 as described, [29], [47]. […] There were no decreases in white cells (WBC), red blood cells (RBC) and platelets (PLT) in blood.

T1 sequence (O08734 whole entry): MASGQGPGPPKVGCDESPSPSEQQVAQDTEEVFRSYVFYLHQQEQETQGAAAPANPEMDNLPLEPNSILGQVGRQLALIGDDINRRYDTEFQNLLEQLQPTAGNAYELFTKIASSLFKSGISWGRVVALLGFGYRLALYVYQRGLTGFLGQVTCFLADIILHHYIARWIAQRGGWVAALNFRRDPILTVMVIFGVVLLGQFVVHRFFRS

Q: COc1ccc2nc3ccccc3c(NCCNCC(C)O)c2c1 (stereo not drawn) [BKA-073] was tested. Which Kd (mouse Bak protein) did it give?
A: The Kd was 93.4 ± 7.91 nM.

Q: And the “apoptosis (active caspase 3, IHC) in tumor tissues” value (A549 xenografts; 5, 10, 15mg/kg/d i.p., 28 days)?
A: Its value is “Dose-dependent”.

Q: What about the tumor growth (A549 xenografts; 5, 10, 15mg/kg/d i.p., 28 days) of the same compound?
A: The tumor growth was “potently suppressed lung cancer growth in a dose-dependent fashion”.

Q: What about the “Bak oligomerization in tumor tissues” value (A549 xenografts; 5, 10, 15mg/kg/d i.p., 28 days, BMH cross-linking) of the same compound?
A: The value was “Dose-dependent”.

Q: What about the tumor growth (A549 xenografts; A549-P xenografts, 15 mg/kg/d, 4 weeks) of the same compound?
A: Its tumor growth is “repressed xenografts”.

Q: What about the tumor growth (A549 xenografts; parental A549 xenografts, 12.5mg/kg/d i.p., 28 days) of the same compound?
A: The tumor growth was “potently inhibited growth”.
